Series [1] relates to S. cerevisiae HD9 (fps1Δ acr3Δ ycf1Δ). It counts as cell-based, Saccharomyces cerevisiae. Particulars: strain HD9 (FPS1 deleted), 5 μM metalloid, FIG. 4.
For series [2], the target named is T1, AQP9 (Rattus norvegicus, UniProt P56627). It counts as cell-based, Saccharomyces cerevisiae.
Series [3] has as its system S. cerevisiae HD9 (fps1Δ acr3Δ ycf1Δ). The conditions noted are these: HD9 vs MG102 (acr3Δ ycf1Δ), FIG. 3.
For series [4], the target named is T1, AQP9. Particulars: for effect of AQP9 expression on resistance/sensitivity of strain HD9: HD9 pAQP9, galactose induced, FIG. 3.
Series [5] concerns AQP7. The conditions noted are these: HD9 pAQP7.
The subject of series [6] is S. cerevisiae strains W303, W303 pYCF1, MG100, MG100 pYCF1. The series can be described thus: Arsenite transport (accumulation) assay in intact cells, Example 1. The conditions noted are these: FIG. 2. It is filed as cell-based, Saccharomyces cerevisiae.
For series [7] the test system is unchanged. Put plainly: Metal ion resistance assay (growth in liquid SD medium), Example 1.

From patent US7524669B2 (priority 2002, dated 2009) come the findings set out here.

Where two headings read alike, the source gives them in different places.

T1 sequence (P56627 whole entry): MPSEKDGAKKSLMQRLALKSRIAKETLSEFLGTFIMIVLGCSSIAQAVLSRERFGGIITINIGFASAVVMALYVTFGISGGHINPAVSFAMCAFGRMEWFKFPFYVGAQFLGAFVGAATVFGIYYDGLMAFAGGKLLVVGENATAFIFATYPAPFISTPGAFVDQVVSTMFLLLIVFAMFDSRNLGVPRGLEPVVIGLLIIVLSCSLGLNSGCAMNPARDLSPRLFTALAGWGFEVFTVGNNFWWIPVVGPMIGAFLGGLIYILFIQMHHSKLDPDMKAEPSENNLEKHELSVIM

Take `O.O.O.O=C([O-])[C@H]([O-])[C@@H]([O-])C(=O)[O-].O=C([O-])[C@H]([O-])[C@@H]([O-])C(=O)[O-].[K+].[K+].[Sb+3].[Sb+3]` [antimonite, potassium antimonyl tartrate]: the “transport of radioactive metalloid into cells” value in series [1] is “low rates of transport”; in series [2] it was “facilitates transport”. Further, the “resistance of strain HD9 compared to strain MG102 (growth)” value in series [3] is recorded as “relatively resistant”. In addition, the “effect of AQP9 expression on resistance/sensitivity of strain HD9” value in series [4] is reported as “reversed”. Also, the “effect of AQP7 on a plasmid on resistance of strain HD9” value in series [5] is “no effect on resistance”.
In the case of `O=[As]O` [arsenite, sodium arsenite], the “accumulation of 73As(OH)3 in intact cells” value in series [6] (strain MG100, 1.0 μM arsenite) is recorded as “accumulates more ^73As(III) than the wild type”; in series [6] (strain MG100 pYCF1, 1.0 μM arsenite) it was “accumulate much higher amounts of arsenite”; in series [6] (strain W303, 1.0 μM arsenite) it was “accumulate the least arsenic”; in series [6] (strain W303 pYCF1, 1.0 μM arsenite) it was “increases the amount of radioactive arsenite accumulated”. The “transport of radioactive metalloid into cells” value is recorded as “reduced” in series [1] and “accumulated more ^73As(OH)3 than the parental strain MG102” in series [2] (HD9 expressing AQP9, 5 μM metalloid, FIG. 4). Also, the “resistance of strain HD9 compared to strain MG102 (growth)” value in series [3] is “resistant”. Also, the “effect of AQP9 expression on resistance/sensitivity of strain HD9” value in series [4] is “reversed”. Also, the “effect of AQP7 on a plasmid on resistance of strain HD9” value in series [5] was “no effect on resistance”. For the same compound, the “arsenite sensitivity (growth)” value in series [7] (strain MG100 (ACR3Δ), FIG. 1) was “extremely arsenic sensitive”. Also, the “arsenite resistance (growth)” value is recorded as “restores arsenite resistance” in series [7] (strain MG100 pYCF1, FIG. 1); “resistant to higher concentrations” in series [7] (strain W303 (wild type ACR3), FIG. 1); “no effect on resistance” in series [7] (strain W303 pYCF1, Ycf1p expressed on a plasmid, FIG. 1).
Consider `[Cl][Cd][Cl]` [cadmium, cadmium chloride], for which the “effect of AQP9 expression on resistance/sensitivity of strain HD9” value in series [4] is given as “no effect on sensitivity”.
Consider `OCC(O)CO` [glycerol], for which the “inhibition of 73As(OH)3 uptake by glycerol” value in series [2] is “reduced the uptake”. In series [4], the “effect of glycerol on AQP9-related arsenite sensitivity in growth assays” value was “small reversal of the AQP9-related arsenite sensitivity”.
On to sodium arsenate, for which the “effect of AQP9 expression on resistance/sensitivity of strain HD9” value in series [4] is on record as “no effect on sensitivity”.
